Test results as given in US9102636B2, “Analgesic compounds, compositions, and uses thereof” (Galleon Pharmaceuticals, Inc., priority 2010, dated 2015).
Several values for one entry are separate records, joined by “and”; a condition that tells them apart may be missing. Equal entries are not always repeated. Entries after “also recorded” stand apart in the source; their conditions may differ.

Legend:
[1] = tested on: FCA induced edema; assay: FCA induced edema (paw volume); type: in vivo, rat
Procedure: Compound 2 was evaluated in the rat Freund's complete adjuvant (FCA) model of inflammatory pain. The rat Freund's complete adjuvant (FCA) intraplantar model of inflammatory pain produces behaviors similar to those observed in patients and has been widely used to assess novel pharmacological treatments (Lam et al., 2008, J Ethnopharmacol. 120:44-50). The positive control was celecoxib (TRC, Montreal), and the negative control was vehicle (0.5% methyl cellulose, in phosphate buffered saline). […] The Hargreaves apparatus was obtained from Ugo Basile, Italy. The Freund's complete adjuvant was obtained from Sigma, St. Louis, and the electronic von frey was obtained from Stoelting, Ill. For this assay, paw withdrawal latency to a thermal stimulus was assessed using a radiant heat source (Ugo Basile, Italy) aimed at the plantar surface of the left hind paw (Hargreaves test; […] Paw withdrawal thresholds to a non-noxious tactile stimulus was assessed using an electronic von Frey apparatus that presented an increasing mechanical force to the plantar surface of the hind paw. Paw volume was measured by displacement of water and assuming a tissue density equal to that of water. […] Celecoxib (30 mg/kg p.o.) served as the positive control. […] After induction of anesthesia, the injection site was prepared in a sterile manner and 100 μl of a 50% suspension of FCA injected. After injection, animals were weighed and allowed to recover before being returned to their home cages. Statistical significance was determined on untransformed data using a two-way analysis of variance (Graphpad Prism, NC). Significant main effects were analyzed further by subsequent Bonferronni post-hoc test. The level of significance was set at p<0.05. Data are shown as mean±S.E.M. (with an asterisk to denote significance as compared to vehicle treated controls).

[2] = tested on: hyperalgesia caused by SIN-1; assay: Hyperalgesia caused by SIN-1; type: in vivo; conditions: rat; IV 15 minutes before first SIN-1 (1 mg/kg); FIG. 11
Procedure: Vehicle or compound 2 was given IV 15 minutes before the first administration of SIN-1 (1 mg/kg).

[3] = Oral pharmacokinetics (Tmax) in rats; conditions: rat, in vivo, given orally
[4] = tested on: Carrageenan-induced edema; assay: Carrageenan-induced edema (paw volume); type: in vivo, rat
Procedure: The effect of Compound 2 in the rat carrageenan model of acute inflammatory pain was evaluated. The intraplantar carrageenan model of acute inflammatory pain in the rat results in behaviors similar to that observed in patients and has been widely used to assess novel pharmacological treatments (Whiteside et al., 2005, J. Pharmacol. Exp. Ther. 314:1234-1240). The objective of this study was to evaluate the ability of Compound 2 to reverse or prevent development of thermal hyperalgesia and edema in the rat carrageenan model of acute inflammatory pain. The positive control was indomethacin (Sigma, St. Louis), and the negative control was vehicle (0.5% methyl cellulose). […] The Hargreaves apparatus was obtained from Ugo Basile, Italy, and the lamba-carrageenan was obtained from Sigma, St. Louis. For this assay, paw withdrawal latency to a thermal stimulus was assessed using a radiant heat source (Ugo Basile, Italy) aimed at the plantar surface of the left hind paw (Hargreaves test). […] Paw volume was measured by displacement of water and assuming a tissue density equal to that of water. Baseline latencies were taken prior to carrageenan administration and re-assessed 4 h later. […] Indomethacin (positive control, 30 mg/kg p.o.) was administered prior to carrageenan and behavior assessed 4 hrs post-carrageenan. […] After induction of anesthesia, the injection site was prepared in a sterile manner and 50 μl of a 2% Jamba-carrageenan was injected. After injection, animals were weighed and allowed to recover before being returned to their home cages. Statistical significance was determined on untransformed data using a two-way analysis of variance (Graphpad Prism, NC). Significant main effects were analyzed further by subsequent Bonferronni post-hoc test. The level of significance was set at p<0.05. Data are shown as mean±S.E.M. (with an asterisk to denote significance as compared to vehicle treated controls).

CC1(C)SC(Nc2ccccc2O)=N[C@@H]1C(=O)O [Compound 2, (R)-2-(2-hydroxyphenylamino)-thiazoline-5,5-dimethyl-4-carboxylic acid]
Paw volume ([1]; 24 hrs post, compound 2 10 mg/kg p.o. preemptive, FIG. 20A, 10 mg/kg): 2.7 mL and 2.6 mL and 3.1 mL
Paw volume ([1]; 24 hrs post, compound 2 30 mg/kg p.o. preemptive, FIG. 20A, 30 mg/kg): 2.1 mL and 2.9 mL and 3 mL
Paw volume ([1]; 48 hrs post, compound 2 10 mg/kg p.o. preemptive, FIG. 20A, 10 mg/kg): 2.6 mL and 2.5 mL and 2.9 mL and 3.2 mL
Paw volume ([1]; 48 hrs post, compound 2 30 mg/kg p.o. preemptive, FIG. 20A, 30 mg/kg): 2.5 mL and 2.8 mL and 3.1 mL and 2.7 mL and 2.9 mL
Paw volume ([1]; FCA/Compound 2, 10 mg/kg p.o., dosed 24 hours post-FCA, Pre-FCA (baseline), individual animals): 1.7 mL (2×) and 1.6 mL (2×) and 1.8 mL (3×) and 1.5 mL
Paw volume ([1]; FCA/Compound 2, 10 mg/kg p.o., 1 hr (D2), individual animals): 2.7 mL (3×) and 2.9 mL and 2.5 mL and 2.8 mL and 2.3 mL and 3.2 mL
Paw volume ([1]; FCA/Compound 2, 10 mg/kg p.o., 1 hr, individual animals): 2.9 mL (2×) and 3.1 mL (2×) and 2.7 mL (2×) and 2.8 mL and 3 mL
Paw volume ([1]; FCA/Compound 2, 10 mg/kg p.o., 3 hrs (D2), individual animals): 2.7 mL (2×) and 3 mL and 2.6 mL and 2.5 mL and 2.8 mL and 2.4 mL and 3.2 mL
Paw volume ([1]; FCA/Compound 2, 10 mg/kg p.o., 3 hrs, individual animals): 2.9 mL (4×) and 3.1 mL and 2.7 mL and 2.4 mL and 3.2 mL
Paw volume ([1]; FCA/Compound 2, 10 mg/kg p.o., Pre-Drug (D2), individual animals): 2.7 mL (2×) and 3 mL and 2.6 mL (2×) and 2.8 mL and 2.4 mL and 3.2 mL
Paw volume ([1]; FCA/Compound 2, 10 mg/kg p.o., Pre-Drug, individual animals): 3.1 mL (2×) and 2.8 mL (2×) and 2.9 mL and 3 mL and 2.7 mL and 3.4 mL
Paw volume ([1]; FCA/Compound 2, 30 mg/kg p.o., dosed 24 hours post-FCA, Pre-FCA (baseline), individual animals): 1.7 mL (4×) and 1.8 mL (2×) and 1.5 mL and 1.9 mL
Paw volume ([1]; FCA/Compound 2, 30 mg/kg p.o., 1 hr, individual animals): 2.6 mL
Paw volume ([1]; FCA/Compound 2, 30 mg/kg p.o., Pre-Drug, individual animals): 2.8 mL (2×) and 3 mL (2×) and 2.9 mL and 3.2 mL and 2.6 mL and 3.4 mL
Paw volume ([1]; Pre-FCA, compound 2 10 mg/kg p.o. preemptive group, individual rats, FIG. 20A, 10 mg/kg): 1.7 mL (2×) and 1.6 mL and 1.8 mL (2×) and 1.9 mL
Paw volume ([1]; Pre-FCA, compound 2 30 mg/kg p.o. preemptive group, individual rats, FIG. 20A, 30 mg/kg): 1.6 mL and 1.7 mL (2×) and 1.9 mL and 1.8 mL (2×)
FCA-induced edema (finding in words) ([1]; rat, 10 and 30 mg/kg p.o., preemptive and curative (24 hours post-FCA)): did not have a statistically significant effect; also recorded: did not affect edema
hyperalgesia caused by SIN-1 [2]: inhibits hyperalgesia caused by SIN-1
Tmax [3]: 1 h
Paw volume ([4]; 1 hr post-drug, compound 2 10 mg/kg p.o. 3 hrs after carrageenan (curative), FIG. 21B, 10 mg/kg): 2.6 mL and 2.9 mL and 2.5 mL and 2.7 mL
Paw volume ([4]; 1 hr post-drug, compound 2 30 mg/kg p.o. 3 hrs after carrageenan (curative), FIG. 21B, 30 mg/kg): 2.4 mL and 2.6 mL and 2.5 mL and 2.9 mL and 2.3 mL
Paw volume ([4]; Pre-Cg, compound 2 10 mg/kg group, individual rats, FIG. 21B, 10 mg/kg): 1.7 mL (2×) and 1.8 mL (3×) and 1.6 mL
Paw volume ([4]; Pre-Cg, compound 2 30 mg/kg group, individual rats, FIG. 21B, 30 mg/kg): 1.6 mL (3×) and 1.7 mL (2×) and 1.8 mL and 1.5 mL
Paw volume ([4]; compound 2 10 mg/kg p.o. preemptive, 4 hr post-drug, individual animals, 10 mg/kg): 3.3 mL and 2.8 mL (2×) and 3.2 mL and 3.1 mL and 2.9 mL
Paw volume ([4]; compound 2 10 mg/kg p.o. preemptive, Pre-Cg, individual animals, 10 mg/kg): 1.7 mL (2×) and 1.6 mL (3×) and 1.5 mL
Paw volume ([4]; compound 2 30 mg/kg p.o. preemptive, 4 hr post-drug, individual animals, 30 mg/kg): 2.9 mL and 2.7 mL (4×) and 2.8 mL
Paw volume ([4]; compound 2 30 mg/kg p.o. preemptive, Pre-Cg, individual animals, 30 mg/kg): 1.7 mL (3×) and 1.6 mL (2×) and 1.8 mL
carrageenan-induced edema, preemptive (finding in words) ([4]; rat, 10 and 30 mg/kg p.o. 15 minutes prior to carrageenan): did not significantly prevent
carrageenan-induced edema, curative (finding in words) ([4]; rat, p.o. 3 hours post-carrageenan, significant at 30 mg/kg, 30 mg/kg): significantly reversed edema
